Patent US20250034216A1, “STEREOSELECTIVE COVALENT LIGANDS FOR ONCOGENIC AND IMMUNOLOGICAL PROTEINS” (The Scripps Research Institute, priority 2021, published 2025)

Columns and labels:
Assay in all cases: IA-DTB cysteine engagement
Type in all cases: binding
PRXL2A_C85 = biological target: T1, PRXL2A_C85 (Homo sapiens, UniProt Q9BRX8); details: 22Rv1 cells, relative to DMSO; for % engagement PRXL2A_C85: 20 μM probe, 1 h; for % engagement PRXL2A_85: 5 μM probe, 1 h (FIG. 5B)
T1 construct: endogenous in cells; host or cells: 22Rv1
T1 sequence (Q9BRX8 1-229): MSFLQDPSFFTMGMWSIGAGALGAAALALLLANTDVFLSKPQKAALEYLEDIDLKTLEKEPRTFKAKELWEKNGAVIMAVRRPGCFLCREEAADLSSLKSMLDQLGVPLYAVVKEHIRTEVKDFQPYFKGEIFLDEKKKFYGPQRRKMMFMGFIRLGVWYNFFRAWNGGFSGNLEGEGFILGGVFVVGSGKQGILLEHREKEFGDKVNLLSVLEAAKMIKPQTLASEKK
Outline: (§1)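 Probe-exposed cells were lysed, IA-DTB-labeled, trypsinized and streptavidin-enriched. Multiplexed TMT quantitation gave engagement ratios versus DMSO, with non-tryptic peptides excluded and intensities normalized to median summed signal.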

GNPAT_C54 = biological target: T2, GNPAT_C54 (Homo sapiens, UniProt O15228); details: 22Rv1 cells, relative to DMSO; for % engagement GNPAT_C54: 20 μM probe, 1 h; for % engagement GNPAT_54: 5 μM probe, 1 h (FIG. 5B)
T2 construct: endogenous in cells; host or cells: 22Rv1
T2 sequence (O15228 1-680): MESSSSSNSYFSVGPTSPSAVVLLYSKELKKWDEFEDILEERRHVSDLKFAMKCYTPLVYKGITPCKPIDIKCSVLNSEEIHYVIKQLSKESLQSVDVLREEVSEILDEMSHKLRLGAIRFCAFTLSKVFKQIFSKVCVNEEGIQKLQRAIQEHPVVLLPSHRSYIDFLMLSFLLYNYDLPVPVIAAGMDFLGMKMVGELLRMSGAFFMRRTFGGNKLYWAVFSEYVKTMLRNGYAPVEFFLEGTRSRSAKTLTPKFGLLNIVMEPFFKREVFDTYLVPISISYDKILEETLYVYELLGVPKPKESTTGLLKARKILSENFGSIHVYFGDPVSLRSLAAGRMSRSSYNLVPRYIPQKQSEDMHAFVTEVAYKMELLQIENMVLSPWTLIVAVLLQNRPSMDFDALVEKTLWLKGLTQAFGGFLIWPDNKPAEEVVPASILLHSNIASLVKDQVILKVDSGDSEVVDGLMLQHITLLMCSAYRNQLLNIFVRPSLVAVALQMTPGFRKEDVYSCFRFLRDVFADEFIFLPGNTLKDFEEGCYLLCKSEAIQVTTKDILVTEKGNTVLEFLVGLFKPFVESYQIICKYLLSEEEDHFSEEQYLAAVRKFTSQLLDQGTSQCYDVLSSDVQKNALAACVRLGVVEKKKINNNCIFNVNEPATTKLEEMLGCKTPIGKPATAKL
Outline: as §1

MAGI1_C526 = biological target: T3, MAGI1_C526 (Homo sapiens, UniProt Q96QZ7); details: 22Rv1 cells, 20 μM probe, 1 h, relative to DMSO
T3 construct: endogenous in cells; host or cells: 22Rv1
T3 sequence (Q96QZ7 whole entry): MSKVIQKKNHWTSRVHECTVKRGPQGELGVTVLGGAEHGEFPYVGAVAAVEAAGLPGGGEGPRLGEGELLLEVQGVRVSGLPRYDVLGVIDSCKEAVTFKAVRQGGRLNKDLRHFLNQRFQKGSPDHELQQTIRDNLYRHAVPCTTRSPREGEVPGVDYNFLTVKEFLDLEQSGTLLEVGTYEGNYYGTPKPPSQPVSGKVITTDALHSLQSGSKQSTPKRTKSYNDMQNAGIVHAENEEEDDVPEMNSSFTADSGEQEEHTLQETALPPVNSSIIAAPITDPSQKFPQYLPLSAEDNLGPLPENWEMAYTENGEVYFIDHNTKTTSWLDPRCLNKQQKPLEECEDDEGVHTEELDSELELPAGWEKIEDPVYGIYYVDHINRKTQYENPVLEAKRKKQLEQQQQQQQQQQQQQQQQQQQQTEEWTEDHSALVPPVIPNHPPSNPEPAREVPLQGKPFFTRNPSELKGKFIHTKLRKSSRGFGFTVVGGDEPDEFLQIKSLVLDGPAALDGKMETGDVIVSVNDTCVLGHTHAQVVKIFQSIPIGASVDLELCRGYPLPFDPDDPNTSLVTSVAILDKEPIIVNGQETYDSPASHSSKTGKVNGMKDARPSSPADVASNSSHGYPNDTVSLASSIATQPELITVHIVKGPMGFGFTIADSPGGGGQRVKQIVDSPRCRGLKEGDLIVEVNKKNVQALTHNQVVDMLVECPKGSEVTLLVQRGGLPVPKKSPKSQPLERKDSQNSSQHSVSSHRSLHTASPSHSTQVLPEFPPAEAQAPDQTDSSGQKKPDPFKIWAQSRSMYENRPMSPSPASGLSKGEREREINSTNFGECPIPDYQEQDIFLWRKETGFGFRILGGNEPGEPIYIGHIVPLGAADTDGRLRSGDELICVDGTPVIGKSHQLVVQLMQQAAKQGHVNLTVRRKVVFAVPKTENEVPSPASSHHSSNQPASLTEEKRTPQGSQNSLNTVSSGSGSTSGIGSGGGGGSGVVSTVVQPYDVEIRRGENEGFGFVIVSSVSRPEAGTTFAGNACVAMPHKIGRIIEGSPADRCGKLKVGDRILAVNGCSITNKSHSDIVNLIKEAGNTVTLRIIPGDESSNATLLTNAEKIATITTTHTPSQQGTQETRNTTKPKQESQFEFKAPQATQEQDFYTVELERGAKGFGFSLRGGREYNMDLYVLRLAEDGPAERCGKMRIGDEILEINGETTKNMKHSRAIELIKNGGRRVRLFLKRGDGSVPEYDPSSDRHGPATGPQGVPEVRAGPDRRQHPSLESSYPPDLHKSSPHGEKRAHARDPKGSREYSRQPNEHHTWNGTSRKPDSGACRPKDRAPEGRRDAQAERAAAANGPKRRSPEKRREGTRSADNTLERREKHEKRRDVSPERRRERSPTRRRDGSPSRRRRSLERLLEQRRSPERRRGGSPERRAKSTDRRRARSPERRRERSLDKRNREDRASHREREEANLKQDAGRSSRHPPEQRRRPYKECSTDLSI
Outline: as §1

SPATA2_C41 = biological target: T4, SPATA2_C41 (Homo sapiens, UniProt Q9UM82); details: 22Rv1 cells, 20 μM probe, 1 h, relative to DMSO
T4 construct: endogenous in cells; host or cells: 22Rv1
T4 sequence (Q9UM82 1-520): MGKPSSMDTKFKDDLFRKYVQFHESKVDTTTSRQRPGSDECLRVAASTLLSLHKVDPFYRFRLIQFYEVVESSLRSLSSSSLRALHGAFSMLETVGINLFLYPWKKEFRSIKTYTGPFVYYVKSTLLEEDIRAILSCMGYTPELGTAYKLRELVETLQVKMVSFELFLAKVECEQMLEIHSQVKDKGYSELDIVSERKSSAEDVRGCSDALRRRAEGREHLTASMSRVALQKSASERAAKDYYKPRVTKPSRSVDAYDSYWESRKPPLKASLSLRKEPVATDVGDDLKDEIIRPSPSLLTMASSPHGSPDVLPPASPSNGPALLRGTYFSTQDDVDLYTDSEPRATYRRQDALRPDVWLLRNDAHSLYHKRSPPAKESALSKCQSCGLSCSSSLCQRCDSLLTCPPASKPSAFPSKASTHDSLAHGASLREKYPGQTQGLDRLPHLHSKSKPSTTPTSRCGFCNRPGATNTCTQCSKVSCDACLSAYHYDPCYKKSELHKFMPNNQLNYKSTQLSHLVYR
Outline: as §1

Row | SMILES | % engagement PRXL2A_C85 (PRXL2A_C85) [%] | % engagement GNPAT_C54 (GNPAT_C54) [%] | % engagement MAGI1_C526 (MAGI1_C526) [%] | % engagement SPATA2_C41 (SPATA2_C41) [%] | % engagement PRXL2A_85 (PRXL2A_C85) [%] | % engagement GNPAT_54 (GNPAT_C54) [%]
1 | C=CC(=O)N1C[C@@H](c2ccc(Br)cc2)[C@H]1C(=O)Nc1cccc2cccnc12 [MY-1A, (2S,3R)-1-acryloyl-3-(4-bromophenyl)-N-(quinolin-8-yl)azetidine-2-carboxamide] | 92.5 | 88.5 | 65 | 58 |  | 
2 | C=CC(=O)N1C[C@H](c2ccc(Br)cc2)[C@@H]1C(=O)Nc1cccc2cccnc12 [MY-1B, (2R,3S)-1-acryloyl-3-(4-bromophenyl)-N-(quinolin-8-yl)azetidine-2-carboxamide] | 98.75 | 91.5 | 32 | 91.75 | 91.48 | 73.17
3 | CC#CC(=O)N1C[C@H](c2ccc(Br)cc2)[C@@H]1C(=O)Nc1cccc2cccnc12 [MY-45B, (2R,3S)-3-(4-bromophenyl)-1-(but-2-ynoyl)-N-(quinolin-8-yl)azetidine-2-carboxamide] |  |  |  |  | 86.23 | 51.83

Continued, values first:

Row | % engagement PRXL2A_C85 (PRXL2A_C85) [%] | % engagement GNPAT_C54 (GNPAT_C54) [%] | % engagement MAGI1_C526 (MAGI1_C526) [%] | % engagement SPATA2_C41 (SPATA2_C41) [%] | % engagement PRXL2A_85 (PRXL2A_C85) [%] | % engagement GNPAT_54 (GNPAT_C54) [%] | SMILES
4 | 98.5 | 77.5 | 100 | 29.5 |  |  | C=CC(=O)N1C[C@H](c2ccc(Br)cc2)[C@H]1C(=O)Nc1cccc2cccnc12 [MY-3B, (2S,3S)-1-acryloyl-3-(4-bromophenyl)-N-(quinolin-8-yl)azetidine-2-carboxamide]
5 | 97.5 | 54.25 | 2.5 | 24.5 |  |  | C=CC(=O)N1C[C@H](c2ccc(Br)cc2)[C@H]1C(=O)Nc1cccc2cccnc12 [MY-3A, (2S,3S)-1-acryloyl-3-(4-bromophenyl)-N-(quinolin-8-yl)azetidine-2-carboxamide]
